# Measurements published in patent US20110144079A1, “ANTIMICROBIAL SYSTEM” (priority 2008, published 2011).
# Assays:
# E. coli PIII = test: Broth microdilution MIC; assay type: cell-based; conditions: Escherichia coli
# Description: (§1) Broth microdilution tests were performed according to NCCLS guidelines. Serial two-fold dilutions of each imidazolium salt (from an original working solution which had been 0.22 μm sterile filtered) in Mueller-Hinton Broth (MHB) (100 μl) were prepared in 96-well micro-titre plates over the range 0.0000625-1% w/v. The inoculum to be tested was prepared by adjusting the turbidity of an actively overnight growing broth culture in MHB to an optical density at 550 nm equivalent to 1×10^8 CFU/ml. The suspension was further diluted to provide a final inoculum density of 2×10^5 CFU/ml in MHB as verified by total viable count. The inoculum to be tested (100 μl, 2×10^5 CFU ml^−1) was added to each well of the microdilution trays which were incubated aerobically for 24 h at 37° C. Positive and negative growth controls were included in every assay (6 replicates). After determining the MICs, minimum bactericidal concentrations (MBCs) were determined by spreading 20 μl of suspension from wells showing no growth onto MHA plates, which were then incubated for 24 h and examined for 99.9% killing.
# MRSA [1] = test: Broth microdilution MIC/MBC; assay type: cell-based, methicillin-resistant S. aureus; conditions: Staphylococcus aureus; for MBC: 99.9% killing; for MIC: 24 h at 37° C.
# Description: as §1
# MRSA [2] = test: Biofilm assay (Calgary Biofilm Device), MBEC; assay type: cell-based, methicillin-resistant S. aureus; conditions: for MBEC: MRSA 24 h biofilm, 24 h challenge; for percent weight to volume of ionic liquid that corresponds to the MBEC value: MRSA biofilm
# Description: Biofilms of each test organism were grown in the Calgary Biofilm Device (commercially available as the MBEC Assay™ for Physiology & Genetics, Innovotech Inc., Edmonton, Alberta, Canada). The device, a micro-titre plated based assay, consists of two parts; a microtitre plate containing the inoculated test medium and a polystyrene lid with 96 identical pegs on which the microbial biofilm forms under gyrorotary incubation. The biofilm assay was conducted according to the MBEC™ assay protocol as supplied by the manufacturer, with slight modifications. Inocula of each test organism were prepared in MHB as described above and adjusted to provide a final inoculum density of ˜10^7 CFU ml^−1 (as confirmed by viable count). 150 μl of the inoculated media was transferred to each well of the 96-well microtitre plate and the assay plate lid, bearing 96 pegs was placed into the microtitre plate. The MBEC assay plates were placed in a gyrorotary incubator (37° C., 95% relative humidity) for 24 h to permit growth and comparison of 24 h biofilms of each test strain. Positive and negative growth controls were included in each plate (6 replicates). Initial and 24 h planktonic viable counts were measured, as were 24 h biofilm counts, expressed as CFU peg^−1, according to manufacturers instructions. After 24 h, the peg lid of the MBEC assay plate was gently rinsed three times. After rinsing, the peg lid of the MBEC assay was transferred to a ‘challenge’ plate. Serial dilutions of each imidazolium salt were prepared in 200 μl of MHB containing various concentrations of IL in each well. Positive growth control and sterility control were included in each assay plate. […] Biofilms were dislodged into recovery media by sonication for 5 minutes and the peg lid discarded. The recovery plate is incubated overnight and visually checked after 24 h for turbidity. In addition, optical density measurements for each plate were recorded at 550 nm. Clear wells were taken as evidence of biofilm eradication and the MBEC value was assigned as the lowest concentration at which no growth was observed after 24 h incubation. Plates were incubated for a further 24 h to confirm biofilm eradication concentrations.
# [3] = tested on: Staphylococcus Epidermidis; test: Kill kinetics, planktonic cell cultures; assay type: cell-based
# Excerpt: (§2) The kill kinetic data is provided in terms of the measured colony forming units per millilitre (CFU/mL) values, and is also provided graphically in FIGS. 9-11.
# Escherichia Coli = test: Kill kinetics, planktonic cell cultures; assay type: cell-based
# Excerpt: as §2
# [4] = tested on: Methicillin Resistant Staphylococcus Aureus (MRSA); test: Kill kinetics, planktonic cell cultures; assay type: cell-based
# Excerpt: as §2
# [5] = tested on: S. epidermidis ATCC 12228; test: Broth microdilution MIC/MBC; assay type: cell-based; conditions: Staphylococcus epidermidis, ATCC12228; for MBC: S. epidermidis ATCC 12228, 99.9% killing; for MIC: S. epidermidis ATCC 12228, 24 h at 37° C.
# Summary of the method: (§3)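 MIC endpoint is the lowest imidazolium salt level (range 0.0000625–1% w/v, two-fold steps in Mueller-Hinton broth) preventing growth after 24 h aerobic incubation at 37 °C with 2×10^5 CFU/ml. MBC is the lowest level giving 99.9% killing when no-growth wells are spread on MHA.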
# [6] = tested on: S. epidermidis ATCC 35984; test: Broth microdilution MIC/MBC; assay type: cell-based; conditions: for MIC: S. epidermidis ATCC 35984, 24 h at 37° C.; for MBC: ATCC35984, S. epidermidis ATCC 35984, 99.9% killing
# Summary of the method: as §3
# MRSA [7] = test: Zone of inhibition on MRSA-seeded agar culture plates; assay type: cell-based, methicillin-resistant S. aureus; conditions: 40 μL of ionic liquid applied to MRSA-seeded agar culture plates
# Excerpt: As used herein, CyMIMCI, refers to 1-alkyl-3-methyl-imidazolium chloride ionic liquids, wherein the alkyl group is a straight chain alkyl group having y carbon atoms.
# [8] = Staphylococcus epidermidis, ATCC35984, 24 h
smiles,measurement,setting,value
"CCCCCCCCCCn1cc[n+](C)c1.[Cl-] [C10MIMCl, 1-decyl-3-methylimidazolium chloride]",MIC,E. coli PIII,321 µM
same,MBC,MRSA [1],643 µM
same,MIC,MRSA [1],160 µM
same,MBEC,MRSA [2],4829 µM
same,percent weight to volume of ionic liquid that corresponds to the MBEC value,MRSA [2],(0.125) % w/v
same,colony forming units per millilitre,"[3]; 644 μM, 0 Minutes",8.96 × 10^7 CFU/mL
same,colony forming units per millilitre,"[3]; 644 μM, 5 Minutes",8.58 × 10^5 CFU/mL
same,colony forming units per millilitre,"[3]; 644 μM, 10 Minutes",6.92 × 10^4 CFU/mL
same,colony forming units per millilitre,"[3]; 644 μM, 20 Minutes",1.06 × 10^4 CFU/mL
same,colony forming units per millilitre,"[3]; 644 μM, 30 Minutes",2.42 × 10^3 CFU/mL
same,colony forming units per millilitre,"[3]; 644 μM, 45 Minutes",9.17 × 10^2 CFU/mL
same,colony forming units per millilitre,"Escherichia Coli; 2000 μM, 0 Minutes",6.25 × 10^7 CFU/mL
same,colony forming units per millilitre,"Escherichia Coli; 2000 μM, 5 Minutes",3.33 × 10^2 CFU/mL
same,colony forming units per millilitre,"Escherichia Coli; 2000 μM, 10 Minutes",0.00 CFU/mL
same,colony forming units per millilitre,"Escherichia Coli; 2000 μM, 20 Minutes",0.00 CFU/mL
same,colony forming units per millilitre,"Escherichia Coli; 2000 μM, 30 Minutes",0.00 CFU/mL
same,colony forming units per millilitre,"Escherichia Coli; 2000 μM, 45 Minutes",0.00 CFU/mL
same,colony forming units per millilitre,"[4]; 1379 μM, 0 Minutes",1.10 × 10^8 CFU/mL
same,colony forming units per millilitre,"[4]; 1379 μM, 5 Minutes",3.67 × 10^7 CFU/mL
same,colony forming units per millilitre,"[4]; 1379 μM, 10 Minutes",5.00 × 10^6 CFU/mL
same,colony forming units per millilitre,"[4]; 1379 μM, 20 Minutes",5.75 × 10^4 CFU/mL
same,colony forming units per millilitre,"[4]; 1379 μM, 30 Minutes",6.67 × 10^2 CFU/mL
same,colony forming units per millilitre,"[4]; 1379 μM, 45 Minutes",8.33 × 10^1 CFU/mL
same,MBC,[5],644 µM
same,MIC,[5],40 µM
same,MIC,[6]; [8],40 µM
same,MBC,[6]; Staphylococcus epidermidis,160 µM
same,Zone Of Inhibition Radius,MRSA [7],17 mm
"CCCCCCCCCCCCn1cc[n+](C)c1.[Cl-] [C12MIMCl, 1-dodecyl-3-methylimidazolium chloride]",MIC,E. coli PIII,73 µM
same,MBC,MRSA [1],290 µM
same,MIC,MRSA [1],36 µM
same,MBEC,MRSA [2],545 µM
same,percent weight to volume of ionic liquid that corresponds to the MBEC value,MRSA [2],(0.016) % w/v
same,colony forming units per millilitre,"[3]; 145 μM, 0 Minutes",6.25 × 10^7 CFU/mL
same,colony forming units per millilitre,"[3]; 145 μM, 5 Minutes",1.67 × 10^2 CFU/mL
same,colony forming units per millilitre,"[3]; 145 μM, 10 Minutes",0.00 CFU/mL
same,colony forming units per millilitre,"[3]; 145 μM, 20 Minutes",0.00 CFU/mL
same,colony forming units per millilitre,"[3]; 145 μM, 30 Minutes",0.00 CFU/mL
same,colony forming units per millilitre,"[3]; 145 μM, 45 Minutes",0.00 CFU/mL
same,colony forming units per millilitre,"Escherichia Coli; 871 μM, 0 Minutes",1.13 × 10^8 CFU/mL
same,colony forming units per millilitre,"Escherichia Coli; 871 μM, 5 Minutes",0.00 CFU/mL
same,colony forming units per millilitre,"Escherichia Coli; 871 μM, 10 Minutes",0.00 CFU/mL
same,colony forming units per millilitre,"Escherichia Coli; 871 μM, 20 Minutes",0.00 CFU/mL
same,colony forming units per millilitre,"Escherichia Coli; 871 μM, 30 Minutes",0.00 CFU/mL
same,colony forming units per millilitre,"Escherichia Coli; 871 μM, 45 Minutes",0.00 CFU/mL
same,colony forming units per millilitre,"[4]; 290 μM, 0 Minutes",2.08 × 10^8 CFU/mL
same,colony forming units per millilitre,"[4]; 290 μM, 5 Minutes",2.75 × 10^5 CFU/mL
same,colony forming units per millilitre,"[4]; 290 μM, 10 Minutes",0.00 CFU/mL
same,colony forming units per millilitre,"[4]; 290 μM, 20 Minutes",0.00 CFU/mL
same,colony forming units per millilitre,"[4]; 290 μM, 30 Minutes",0.00 CFU/mL
same,colony forming units per millilitre,"[4]; 290 μM, 45 Minutes",0.00 CFU/mL
same,MBC,[5],145 µM
same,MIC,[5],36 µM
same,MIC,[6]; [8],36 µM
same,MBC,[6]; Staphylococcus epidermidis,73 µM
same,Zone Of Inhibition Radius,MRSA [7],17 mm
"CCCCCCCCCCCCCCn1cc[n+](C)c1.[Cl-] [C14MIMCl, 1-tetradecyl-3-methylimidazolium chloride]",MIC,E. coli PIII,33 µM
same,MBC,MRSA [1],66 µM
same,MIC,MRSA [1],16 µM
same,MBEC,MRSA [2],124 µM
same,percent weight to volume of ionic liquid that corresponds to the MBEC value,MRSA [2],(0.004 % w/v
same,colony forming units per millilitre,"[3]; 40 μM, 0 Minutes",8.67 × 10^7 CFU/mL
same,colony forming units per millilitre,"[3]; 40 μM, 5 Minutes",0.00 CFU/mL
same,colony forming units per millilitre,"[3]; 40 μM, 10 Minutes",0.00 CFU/mL
same,colony forming units per millilitre,"[3]; 40 μM, 20 Minutes",0.00 CFU/mL
same,colony forming units per millilitre,"[3]; 40 μM, 30 Minutes",0.00 CFU/mL
same,colony forming units per millilitre,"[3]; 40 μM, 45 Minutes",0.00 CFU/mL
same,colony forming units per millilitre,"Escherichia Coli; 265 μM, 0 Minutes",1.67 × 10^8 CFU/mL
same,colony forming units per millilitre,"Escherichia Coli; 265 μM, 5 Minutes",1.07 × 10^4 CFU/mL
same,colony forming units per millilitre,"Escherichia Coli; 265 μM, 10 Minutes",2.33 × 10^3 CFU/mL
same,colony forming units per millilitre,"Escherichia Coli; 265 μM, 20 Minutes",0.00 CFU/mL
same,colony forming units per millilitre,"Escherichia Coli; 265 μM, 30 Minutes",0.00 CFU/mL
same,colony forming units per millilitre,"Escherichia Coli; 265 μM, 45 Minutes",0.00 CFU/mL
same,colony forming units per millilitre,"[4]; 40 μM, 0 Minutes",1.52 × 10^8 CFU/mL
same,colony forming units per millilitre,"[4]; 40 μM, 5 Minutes",1.78 × 10^5 CFU/mL
same,colony forming units per millilitre,"[4]; 40 μM, 10 Minutes",2.75 × 10^3 CFU/mL
same,colony forming units per millilitre,"[4]; 40 μM, 20 Minutes",3.33 × 10^2 CFU/mL
same,colony forming units per millilitre,"[4]; 40 μM, 30 Minutes",0.00 CFU/mL
same,colony forming units per millilitre,"[4]; 40 μM, 45 Minutes",0.00 CFU/mL
same,MBC,[5],33 µM
same,MIC,[5],7.7 µM
same,MIC,[6]; listed as 1-alkyl-3-methylimidazolium chlorides 14,7.75 µM
same,MIC,[6]; [8],7.7 µM
same,MBC,[6]; Staphylococcus epidermidis,33 µM
same,Zone Of Inhibition Radius,MRSA [7],10 mm
